Earlier results, collected in patent publication US10548906B2, “Methods of promoting hepatic regeneration” (Intercept Pharmaceuticals, Inc., priority 2015, dated 2020).

How the values were obtained:
Ntcp = details: mice with intrahepatic (but not extrahepatic) cholestasis; cited from earlier work
mice = details: diet enriched with cholic acid, FXR dependent; cited from earlier work
cholestatic animals = details: cited from earlier work

Row | Compound | biliary injury (cholestatic animals) | also measured
1 | CC(C)c1onc(-c2c(Cl)cccc2Cl)c1COc1ccc(/C=C/c2cccc(C(=O)O)c2)c(Cl)c1 [GW4064] | – | Ntcp regulation (Ntcp): loss of Ntcp suppression
2 | C[C@H](CCC(=O)O)[C@H]1CC[C@H]2[C@@H]3[C@H](O)C[C@@H]4C[C@H](O)CC[C@]4(C)[C@H]3C[C@H](O)[C@]12C [cholic acid] | – | liver growth (mice): induced spontaneous liver growth
3 | Cc1c(-c2cnccn2)ssc1=S [oltipraz] | increase in biliary injury | –
4 | C[C@H](CCC(=O)O)[C@H]1CC[C@H]2[C@@H]3[C@@H](O)C[C@@H]4C[C@H](O)CC[C@]4(C)[C@H]3CC[C@]12C [ursodeoxycholic acid] | increase in biliary injury | –
